For 99 compounds, AC50 results are on record in PubChem BioAssay AID651703 (Broad Institute, 2012).

The target in the test is Transforming acidic coiled-coil-containing protein 3 (Homo sapiens) (UniProt Q9Y6A5). Kind of test: ARNT/TACC3 interaction disruptors, potency, confirmation, biochemical, AlphaScreen, cherry-picked samples (AID 651703).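 Further: TACC3 partner is the GST-tagged E629A mutant dimer; hits lower the signal meaning they disrupt ARNT binding to TACC3.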 To be noted: AlphaScreen His-ARNT PAS-B / GST-TACC3 binding, luminescence. For orientation: Bead proximity is the source of the signal in Alpha formats.
In general, AC50 refers to the concentration giving half of the maximal activity seen. For the compound `CCOc1cccc(/C=N/NC(=O)c2cccnc2)c1O`, the AC50 is 21.6 µM. In the case of `COc1ccc(C2C(C#N)=C(N)Oc3n[nH]c(-c4ccccn4)c32)c(OC)c1OC` (centres undefined) it was 53.3 µM; in that of `COc1cc(CNCc2ccccn2)ccc1OCc1c(Cl)cccc1Cl`, 43.4 µM. In the case of `Cc1csc(NC(=O)CSc2ccc(-c3ccccn3)nn2)n1` it was 3.14 µM. In the case of `COc1ccc(OC)c(NC(=O)CSc2ccc3nnc(-c4ccccn4)n3n2)c1` it was 34.3 µM; in that of `c1ccc(-c2n[nH]c(-c3ccccn3)n2)nc1`, under 0.5 µM. Turning to `CCc1cc2c(=O)[nH]c(-c3ccccn3)nc2s1`, the AC50 was 2.86 µM. In the case of `COc1cc(/C=N/N(CCO)C2=NS(=O)(=O)c3ccccc32)cc(OC)c1OC` it was 15.6 µM. In the case of `Nc1ccc2nc(-c3ccccn3)[nH]c2c1` it was 10.1 µM; in that of `Oc1ccc(Cn2ccnc2)c2cccnc12`, under 0.5 µM. In the case of `O=C(CSc1cccc2cccnc12)Nc1ccc(S(=O)(=O)N2CCOCC2)cc1` it was 10.9 µM; in that of `CCOc1ccccc1C(=O)OCC(=O)Nc1nnc(-c2ccccc2)o1`, 23.3 µM; in that of `O=C(NCCCn1ccnc1)C(=O)NCC1OCCN1S(=O)(=O)c1ccccc1` (centres undefined), 6.92 µM. As to `CCCCn1c(NC(=O)c2ccco2)c(C(=O)OCC)c2nc3ccccc3nc21`, the AC50 is 21.9 µM. In the case of `O=C(N[C@@H]1CC[C@@H](CCn2cc(-c3ccccn3)nn2)O[C@@H]1CO)c1cccnc1` it was 13.1 µM; in that of `C/C(=N\NC(=O)C(c1ccccc1)c1ccccc1)c1ccc(O)cc1`, 43.1 µM; in that of `O=c1[nH]c(-c2ccccn2)nc2ccccc12`, 7.86 µM. Turning to `Cc1ccccc1-n1c(SCC(=O)Nc2ccc3c(c2)OCO3)nnc1-c1ccccn1`, the AC50 was 15.6 µM. In the case of `O=C(O)c1ccc(C2CCCCC2)cn1` it was 3.12 µM; in that of `Oc1c(CN2CCN(c3ccc(F)cc3)CC2)cc(Cl)c2cccnc12`, 2.5 µM; in that of `COc1ccc(CCNC(=O)CSc2nnc3ccc(-c4ccccn4)nn23)cc1`, 33.5 µM. Consider `Oc1c(C(c2ccccn2)N2CCCCC2)cc(Cl)c2cccnc12` (centres undefined), for which the AC50 was 1.33 µM. In the case of `COc1cccc(/C=N/NC(=O)c2ccc3nc[nH]c3c2)c1O` it was 23.3 µM; in that of `C/C(CC(=O)Nc1ccc(N(C)C)cc1)=N\NC(=O)c1ccccn1`, 12.3 µM; in that of `Cc1cccc(NC(=O)CSc2ccc(-c3ccccn3)nn2)c1C`, 2.86 µM. In the case of `O=C(Nc1ccc(N2CCN(C(=O)c3ccccc3F)CC2)cc1)c1ncn[nH]1` it was 17.8 µM; in that of `Cc1ccc(NC(=O)CSc2n[nH]c(-c3ccccn3)n2)cc1`, 2.26 µM. Take `CCOc1ccc(C2=Nn3c(nnc3-c3ccccn3)SC2)cc1`: the AC50 is 20.4 µM.

As to `Cc1ccc2cc(C3C(C#N)=C(N)Oc4c3ccc3cccnc43)c(=O)[nH]c2c1` (centres undefined), the AC50 is 7.43 µM. In the case of `COc1cc(CNCc2ccccn2)ccc1OCc1ccc(Cl)cc1Cl` it was 36.6 µM; in that of `O=S(=O)(N[C@H]1CC[C@H](CCn2cc(-c3ccccn3)nn2)O[C@@H]1CO)c1cccc(Cl)c1`, 19.2 µM; in that of `COc1ccc(C(=O)Oc2cccc3cccnc23)cc1[N+](=O)[O-]`, 15 µM. In the case of `Clc1ccc(OCc2nc(-c3ccccn3)n[nH]2)cc1` it was 5.91 µM; in that of `c1ccc(-c2cnc(-c3ccccn3)nn2)cc1`, 3.23 µM.

For `Oc1c(C(c2ccccc2Cl)N2CCCC2)ccc2cccnc12` (centres undefined), the AC50 was 1.85 µM. In the case of `O=C(N[C@H]1CC[C@@H](CCn2cc(-c3ccccn3)nn2)O[C@H]1CO)c1cccnc1` it was 8.65 µM; in that of `CN(Cc1ccccc1)C(=O)c1[nH]cnc1C(=O)Nc1nccs1`, 22.5 µM. In the case of `O=C(Cn1cnc([N+](=O)[O-])n1)N/N=C/c1cc(Cl)ccc1O`, the concentration at half-maximal activity (AC50) was 4.77 µM. As for `CC(=O)c1cccc(NC(=O)CSc2ccc(-c3ccccn3)nn2)c1`, the AC50 was 3.21 µM.

For the compound `Cn1nc(-c2ccccn2)nc2c(=O)n(C)c(=O)nc1-2`, the concentration at half-maximal activity (AC50) is under 0.5 µM. In the case of `O=C(NCCCn1ccnc1)C(=O)NCC1OCCN1S(=O)(=O)c1cc(F)ccc1F` (centres undefined), the AC50 was 3 µM. In the case of `N[C@@H]1CC[C@H](CCn2cc(-c3ccccn3)nn2)O[C@H]1CO` it was 1.13 µM; in that of `CC(=O)Nc1cccc(C(=O)OCC(=O)Nc2nnc(-c3ccccc3)o2)c1`, 16.3 µM; in that of `O=C(N/N=C/c1cc(Cl)cc(Cl)c1O)c1ccncc1`, 3.58 µM.

For `CC1CCN(S(=O)(=O)c2ccc(C(=O)Nc3nnc(C4=COCCO4)o3)cc2)CC1`, the concentration at half-maximal activity (AC50) was 1.21 µM. In the case of `C(=N\Nc1ccc2nncn2n1)/c1ccccn1` it was 14 µM; in that of `O=C(CSC1=NNC(c2ccccn2)S1)Nc1ccccc1` (centres undefined), 0.823 µM; in that of `O=C(CNCc1ccccn1)N1CCc2ccccc2C1`, 3.23 µM. In the case of `COc1ccccc1C(CCNCc1ccc(N(C)C)cc1)c1ccc(OC(C)C)cc1` (centres undefined) it was 7.83 µM. Take `CNCc1cn2cc(Cl)ccc2n1`: the AC50 was 21 µM.

Take `Brc1ccc(OCc2nc(-c3ccccn3)n[nH]2)cc1`: the AC50 is 3.6 µM. In the case of `O=C(COc1nsnc1N1CCOCC1)N/N=C/c1ccccc1O` it was 34.9 µM; in that of `COc1cccc(C(=O)Oc2c(CN3CCOCC3)cc(Cl)c3cccnc23)c1`, 10.9 µM. Turning to `COC(=O)c1ccc2[nH]c3c(c2c1)CC(C)CC3` (centres undefined), the concentration at half-maximal activity (AC50) was 33.2 µM.

Take `CN(C)CCN(C(=O)c1ccc2c(c1)CCCC2)c1nc2cc3c(cc2s1)OCCO3`: the AC50 is 19.9 µM. Turning to `c1ccc(-c2cccc(CNc3nc(-c4ccccn4)nnc3-c3ccccc3)c2)cc1`, the AC50 was 2.28 µM. Regarding `O=C(CSc1ccc(-c2ccccn2)nn1)c1ccc([N+](=O)[O-])cc1`, the AC50 is 4.73 µM. In the case of `c1ccc(-c2cnnc(-c3ccccn3)n2)cc1` it was 2.57 µM; in that of `Cc1ccc(-c2cnc(N)n2C)cc1C`, 41.1 µM; in that of `CC(=O)Nc1cccc(NC(=O)CSc2ccc(-c3ccccn3)nn2)c1`, 2.78 µM.

Turning to `O=C(CSc1ccc2nnc(-c3ccccn3)n2n1)NCc1ccco1`, the AC50 is 9.49 µM. On to `CCN(C(=O)Cc1nc(N)n[nH]1)C1(C(=O)Nc2ccccc2)CCCCC1`, for which the AC50 is 20 µM.

Turning to `COc1cccc(CNC(=O)CSc2ccc(-c3ccccn3)nn2)c1`, the concentration at half-maximal activity (AC50) is 4.03 µM. As to `C[C@H]1CN([C@@H](C)CO)C(=O)Cc2cc(NC(=O)Nc3cccc4ccccc34)ccc2O[C@@H]1CN(C)Cc1ccc(Oc2ccccc2)cc1`, the AC50 was 47.3 µM. In the case of `C/C=C/c1ccc([C@H]2[C@@H](CO)N(Cc3ccccn3)[C@H]2CNC(C)=O)cc1` it was 45.9 µM; in that of `Cc1ccc(C(=O)Nc2cccc(C(=O)N/N=C/c3ccc(O)cc3)c2)cc1`, 32.7 µM; in that of `O=C(CN1C(=O)C2CCCCC2C1=O)Nc1nc(-c2ccccn2)cs1` (centres undefined), 5.15 µM.

Turning to `COc1cc2c(c(OC)c1OC)-c1ccc(O)c(=O)cc1[C@@H](N)CC2`, the AC50 is 29.7 µM. In the case of `O=S1(=O)N=C(N(CCO)/N=C/C=C/c2ccccc2)c2ccccc21` it was 53.9 µM; in that of `O=C(N[C@H]1CC[C@@H](CCn2cc(-c3ccccn3)nn2)O[C@@H]1CO)c1ccncc1`, 15.8 µM; in that of `O=C(COc1ccc(Cl)cc1)Nc1nnc(-c2ccco2)o1`, 19.6 µM. In the case of `N[C@H]1CC[C@@H](CCn2cc(-c3ccccn3)nn2)O[C@H]1CO` it was 1.42 µM; in that of `CCCn1nc(C(=O)Nc2nc(-c3ccccn3)cs2)c2ccccc2c1=O`, 9.63 µM; in that of `Cc1ccccc1Nc1nnc(SCC(=O)NC(=O)NCc2ccco2)s1`, 71.2 µM.

With `Cc1[nH][nH]c(=O)c1C(c1ccc(-c2ccc(C(=O)O)cc2)o1)c1c(C)[nH][nH]c1=O`, the AC50 is 64.1 µM. In the case of `CC1CC1C(=O)Nc1nc(-c2ccccn2)cs1` (centres undefined) it was 15.2 µM; in that of `Cc1ccc(S(=O)(=O)N2CCOCC2)cc1NC(=O)CNCc1ccccn1`, 6.07 µM. In the case of `O=C(CSc1n[nH]c(-c2ccccn2)n1)Nc1cccc(Cl)c1` it was 4.78 µM; in that of `Oc1c(CN2CCN(c3ccccc3)CC2)cc(Br)c2cccnc12`, 1.07 µM; in that of `CNc1nc(-c2ccccn2)nnc1-c1ccccc1`, under 0.5 µM. In the case of `C[C@@H]1CN([C@@H](C)CO)C(=O)Cc2cc(NC(=O)Nc3cccc4ccccc34)ccc2O[C@H]1CN(C)Cc1ccc(Oc2ccccc2)cc1` it was 18.4 µM; in that of `O=S(=O)(NC1CCN(Cc2ccc(OCCO)cc2)CC1)c1cccc2cccnc12`, 15.2 µM.

For the compound `O=C(N[C@H]1CC[C@@H](CCn2cc(-c3ccccn3)nn2)O[C@H]1CO)c1ccncc1`, the AC50 was 9.53 µM. In the case of `O=C(N[C@@H]1CC[C@@H](CCn2cc(-c3ccccn3)nn2)O[C@@H]1CO)c1ccncc1` it was 10.3 µM; in that of `COc1cc(CNCc2ccccn2)ccc1OCc1cccc(Cl)c1`, 62.6 µM. In the case of `COc1ccc(C2CC(=O)Oc3c(C(CCN4CCCCC4)c4ccc(N(C)C)cc4)c(OC)cc(OC)c32)cc1` (centres undefined) it was 10.2 µM. In the case of `O=C(N[C@@H]1CC[C@H](CCn2cc(-c3ccccn3)nn2)O[C@@H]1CO)c1cccnc1` it was 13.5 µM; in that of `COc1ccccc1NC(=O)CSc1ccc(-c2ccccn2)nn1`, 3.1 µM; in that of `O=C(Nc1nnc(-c2ccccn2)o1)c1cccc(Cl)c1`, 30.2 µM. Take `Cc1cc(NC(c2ccc(Cl)cc2)c2ccc3cccnc3c2O)no1` (centres undefined): the AC50 was 10.2 µM.

As to `c1ccc(-c2nnc(Nc3nc(-c4ccccn4)nnc3-c3ccccc3)s2)cc1`, the AC50 is 1.74 µM.

`CCOC(=O)/C(=N/Nc1ccccc1OC)N1CCCc2ccccc21`: the AC50 was 17.3 µM.

With `Cc1ccc(C(=O)Nc2nc(-c3ccccn3)cs2)o1`, the AC50 is 2.07 µM. As for `COc1ccc(C(=O)Nc2nc(-c3ccccn3)cs2)cc1S(=O)(=O)N1CCOCC1`, the AC50 is 3.13 µM.

Consider `C/C(=N\NC(=O)c1c[nH]c2ccccc12)c1ccc(C)o1`, for which the AC50 was 16.4 µM. Consider `O=C(NN=Cc1c(O)ccc2ccccc12)c1ccncc1`, for which the AC50 is 9.94 µM. In the case of `c1ccc(C2=Nn3c(nnc3-c3ccccn3)SC2)cc1` it was 64.9 µM; in that of `O=C(NNc1ccccn1)C(=O)NNS(=O)(=O)c1ccc(F)cc1`, 15.5 µM; in that of `C/C(=N\NC(=O)Cc1ccc(Cl)cc1)c1ccccn1`, 10.2 µM.
